From patent US20120122924A1, “NAMPT INHIBITORS” (ABBOTT LABORATORIES, priority 2010, published 2012)

Target: recombinant, human, C-terminally-His tagged NAMPT (Homo sapiens, UniProt P43490)
Assay: Time-Resolved Fluorescence Resonance Energy Transfer (TR-FRET) binding assay of NAMPT
Conditions: 6.8 nM NAMPT, 200 nM probe (Oregon Green 488-conjugated APO866), 1 nM Tb-anti-His antibody, 2-3 hours
Description: Determination of the utility of compounds having Formula (I) as binders to and inhibitors of NAMPT was performed using a Time-Resolved Fluorescence Resonance Energy Transfer (TR-FRET) binding assay.
Time-Resolved Fluorescence Resonance Energy Transfer (TR-FRET) Binding Assay of NAMPT
The assay was carried out in 18 uL low volume plates (Owens Corning) in reaction buffer (50 mM HEPES (NaOH), pH 7.5, 100 mM NaCl, 10 mM MgCl2, 1 mM DTT, 1% Glycerol) using 6.8 nM recombinant, human, C-terminally-His tagged NAMPT, 1 nM Tb-anti-His antibody (Invitrogen, Cat # PV5895), and 200 nM probe (Oregon Green 488-conjugated APO866; A-1251667.0). Plates were covered, and reactions were carried out for 2-3 hours. Plates were read with Envision (Laser Lantha low volume protocol) after 2 to 3 hours. Excitation was carried out at 337 nm, and the ratio of emission of Oregon Green (520 nm) to terbium (492 nm) was determined and used to calculate IC50 values of test compounds.

Sequence of recombinant, human, C-terminally-His tagged NAMPT (P43490 whole entry): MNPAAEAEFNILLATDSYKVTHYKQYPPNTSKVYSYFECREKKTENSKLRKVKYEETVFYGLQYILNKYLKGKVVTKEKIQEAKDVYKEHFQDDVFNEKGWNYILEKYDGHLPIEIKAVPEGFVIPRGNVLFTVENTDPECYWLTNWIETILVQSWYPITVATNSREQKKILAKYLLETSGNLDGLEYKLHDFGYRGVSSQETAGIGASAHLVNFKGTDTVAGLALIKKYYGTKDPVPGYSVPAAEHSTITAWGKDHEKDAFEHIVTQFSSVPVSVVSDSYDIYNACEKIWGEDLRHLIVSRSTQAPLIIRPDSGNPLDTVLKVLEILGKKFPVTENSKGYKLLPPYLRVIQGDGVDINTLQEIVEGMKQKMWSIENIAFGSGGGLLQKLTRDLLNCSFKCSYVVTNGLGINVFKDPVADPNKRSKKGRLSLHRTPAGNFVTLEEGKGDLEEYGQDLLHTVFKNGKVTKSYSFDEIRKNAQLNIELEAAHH

Compound | IC50
CC(C)CCNC(=O)c1ccc(NC(=O)N2CCc3ccccc3C2)cc1 [Example 1, N-{4-[(3-methylbutyl)carbamoyl]phenyl}-3,4-dihydroisoquinoline-2(1H)-carboxamide] | 16.7 nM
O=C(CCC(=O)c1cccs1)Nc1ccc(NC(=O)N2CCc3ccccc3C2)cc1 [Example 66, N-(4-{[4-oxo-4-(2-thienyl)butanoyl]amino}phenyl)-3,4-dihydroisoquinoline-2(1H)-carboxamide] | 15.3 nM
O=C(NCCc1cccs1)c1ccc(NC(=O)N2CCc3ccccc3C2)nc1 [Example 19, N-(5-{[2-(2-thienyl)ethyl]carbamoyl}pyridin-2-yl)-3,4-dihydroisoquinoline-2(1H)-carboxamide] | 195 nM
O=C(Nc1ccc(NC(=O)N2CCc3ccccc3C2)cc1)C1Cc2ccccc2O1 (racemic) [Example 68, N-{4-[((2R)-2,3-dihydro-1-benzofuran-2-ylcarbonyl)amino]phenyl}-3,4-dihydroisoquinoline-2(1H)-carboxamide and N-{4-[((2S)-2,3-dihydro-1-benzofuran-2-ylcarbonyl)amino]phenyl}-3,4-dihydroisoquinoline-2(1H)-carboxamide] | 4.45 nM
CN(C)CCC(=O)Nc1ccc(NC(=O)N2CCc3ccccc3C2)cc1 [Example 92, N-{4-[(N,N-dimethyl-beta-alanyl)amino]phenyl}-3,4-dihydroisoquinoline-2(1H)-carboxamide] | 5840 nM
O=C(Nc1ccc(NC(=O)N2CCc3ccccc3C2)cc1)c1ccsc1 [Example 85, N-{4-[(3-thienylcarbonyl)amino]phenyl}-3,4-dihydroisoquinoline-2(1H)-carboxamide] | 242 nM
O=C(Nc1ccc(C2=CCN(Cc3ccccc3)CC2)cc1)N1CCc2ccccc2C1 [Example 52, N-[4-(1-benzyl-1,2,3,6-tetrahydropyridin-4-yl)phenyl]-3,4-dihydroisoquinoline-2(1H)-carboxamide] | 80.5 nM
O=C(Nc1ccc(NC(=O)N2CCc3ccccc3C2)cc1)C1CCCCC1 [Example 78, N-{4-[(cyclohexylcarbonyl)amino]phenyl}-3,4-dihydroisoquinoline-2(1H)-carboxamide] | 66.3 nM
COC1CCC(C(=O)Nc2ccc(NC(=O)N3CCc4ccccc4C3)cc2)CC1 (centres unmarked) [Example 64, N-(4-{[(4-methoxycyclohexyl)carbonyl]amino}phenyl)-3,4-dihydroisoquinoline-2(1H)-carboxamide] | 55 nM
O=C(Nc1ccc(C2=CCNCC2)cc1)N1CCc2ccccc2C1 [Example 54, N-[4-(1,2,3,6-tetrahydropyridin-4-yl)phenyl]-3,4-dihydroisoquinoline-2(1H)-carboxamide] | 289 nM
O=C(NCc1ccccc1)c1ccc(NC(=O)N2CCc3ccccc3C2)cc1 [Example 8, N-[4-(benzylcarbamoyl)phenyl]-3,4-dihydroisoquinoline-2(1H)-carboxamide] | 23.7 nM
O=C(Nc1ccc(C(F)(F)F)cc1)N1CCc2ccccc2C1 [Example 97, N-[4-(trifluoromethyl)phenyl]-3,4-dihydroisoquinoline-2(1H)-carboxamide] | 1490 nM
CC(C)S(=O)(=O)N1CC=C(c2ccc(NC(=O)N3CCc4ccccc4C3)cc2)CC1 [Example 45, N-{4-[1-(isopropylsulfonyl)-1,2,3,6-tetrahydropyridin-4-yl]phenyl}-3,4-dihydroisoquinoline-2(1H)-carboxamide] | 13.8 nM
Cn1cc(-c2ccc(NC(=O)N3CCc4ccccc4C3)cc2)cn1 [Example 42, N-[4-(1-methyl-1H-pyrazol-4-yl)phenyl]-3,4-dihydroisoquinoline-2(1H)-carboxamide] | 1290 nM
CC(C)CS(=O)(=O)N1CC=C(c2ccc(NC(=O)N3CCc4ccccc4C3)cc2)CC1 [Example 51, N-{4-[1-(isobutylsulfonyl)-1,2,3,6-tetrahydropyridin-4-yl]phenyl}-3,4-dihydroisoquinoline-2(1H)-carboxamide] | 74.9 nM
O=C(Nc1ccc(NC(=O)N2CCc3ccccc3C2)cc1)c1cn[nH]c1 [Example 89, N-{4-[(1H-pyrazol-4-ylcarbonyl)amino]phenyl}-3,4-dihydroisoquinoline-2(1H)-carboxamide] | 203 nM
O=C(Nc1ccc(C2=CCN(C(=O)c3ccccc3)CC2)cc1)N1CCc2ccccc2C1 [Example 43, N-[4-(1-benzoyl-1,2,3,6-tetrahydropyridin-4-yl)phenyl]-3,4-dihydroisoquinoline-2(1H)-carboxamide] | 10.1 nM
CC(C)(C)CC(=O)Nc1ccc(NC(=O)N2CCc3ccccc3C2)cc1 [Example 71, N-{4-[(3,3-dimethylbutanoyl)amino]phenyl}-3,4-dihydroisoquinoline-2(1H)-carboxamide] | 2.75 nM
O=C(Nc1ccc(NC(=O)N2CCc3ccccc3C2)cc1)c1ccn[nH]1 [Example 88, N-{4-[(1H-pyrazol-5-ylcarbonyl)amino]phenyl}-3,4-dihydroisoquinoline-2(1H)-carboxamide] | 134 nM
CS(=O)(=O)N1CC=C(c2ccc(NC(=O)N3CCc4ccccc4C3)cc2)CC1 [Example 53, N-{4-[1-(methylsulfonyl)-1,2,3,6-tetrahydropyridin-4-yl]phenyl}-3,4-dihydroisoquinoline-2(1H)-carboxamide] | 112 nM
CC(C)CCNC(=O)c1ccc(NC(=O)N2CCc3ccncc3C2)cc1 [Example 28, N-{4-[(3-methylbutyl)carbamoyl]phenyl}-3,4-dihydro-2,7-naphthyridine-2(1H)-carboxamide] | 1250 nM
O=C(CN1CCOCC1)Nc1ccc(NC(=O)N2CCc3ccccc3C2)cc1 [Example 94, N-{4-[(morpholin-4-ylacetyl)amino]phenyl}-3,4-dihydroisoquinoline-2(1H)-carboxamide] | 69.2 nM
O=C(NCCc1ccccc1)c1ccc(NC(=O)N2CCc3ccccc3C2)cc1 [Example 15, N-{4-[(2-phenylethyl)carbamoyl]phenyl}-3,4-dihydroisoquinoline-2(1H)-carboxamide] | 97.6 nM
O=C(NCCc1cccs1)c1ccc(NC(=O)N2CCc3cc(F)ccc3C2)cc1 [Example 13, 6-fluoro-N-(4-{[2-(2-thienyl)ethyl]carbamoyl}phenyl)-3,4-dihydroisoquinoline-2(1H)-carboxamide] | 45.8 nM
CC(C)CCn1cc(NC(=O)c2ccc(NC(=O)N3CCc4ccccc4C3)cc2)cn1 [Example 11, N-(4-{[1-(3-methylbutyl)-1H-pyrazol-4-yl]carbamoyl}phenyl)-3,4-dihydroisoquinoline-2(1H)-carboxamide] | 43.3 nM
CC(C)CCNC(=O)c1ccc(NC(=O)N2CCc3ccccc3C2)nc1 [Example 10, N-{5-[(3-methylbutyl)carbamoyl]pyridin-2-yl}-3,4-dihydroisoquinoline-2(1H)-carboxamide] | 29.4 nM
O=C(Nc1ccc(NC(=O)N2CCc3ccccc3C2)cc1)c1ccoc1 [Example 83, N-[4-(3-furoylamino)phenyl]-3,4-dihydroisoquinoline-2(1H)-carboxamide] | 269 nM
CCCn1cc(-c2ccc(NC(=O)N3CCc4ccccc4C3)cc2)cn1 [Example 35, N-[4-(1-propyl-1H-pyrazol-4-yl)phenyl]-3,4-dihydroisoquinoline-2(1H)-carboxamide] | 103 nM
O=C(Nc1ccc(NC(=O)N2CCc3ccccc3C2)cc1)c1ccc[nH]1 [Example 86, N-{4-[(1H-pyrrol-2-ylcarbonyl)amino]phenyl}-3,4-dihydroisoquinoline-2(1H)-carboxamide] | 377 nM
